{
  "source": "patent US10293050B2",
  "about": "“Macrolide dosage forms” (Micell Technologies, Inc., priority 2010, dated 2019)",
  "origin": "cited, not measured here",
  "key": {"[1]": {"experiment": "not given", "remark": "listed apart in the source"}, "[2]": {"experiment": "not given", "remark": "listed apart in the source"}},
  "data": [
    {"compound": "CO[C@H]1C[C@@H]2CC[C@@H](C)[C@@](O)(O2)C(=O)C(=O)N2CCCC[C@H]2C(=O)O[C@H]([C@H](C)C[C@@H]2CC[C@@H](O)[C@H](OC)C2)CC(=O)[C@H](C)/C=C(\\C)[C@@H](O)[C@@H](OC)C(=O)[C@H](C)C[C@H](C)/C=C/C=C/C=C/1C", "note": "[Rapamycin]", "values": [
      {"measurement": "bioavailability", "setting": "Rapamune oral tablets or solution", "result": "< 14", "unit": "%"},
      {"measurement": "hepatic biotransformation", "setting": "in vivo", "result": "extensive hepatic biotransformation"},
      {"measurement": "blood concentrations", "setting": "once daily oral dosing, immunosuppressive dose 2 or 5 mg daily", "result": "6 to 50", "unit": "ng/mL"},
      {"measurement": "aqueous solubility", "setting": "[1]", "result": "poor aqueous solubility"},
      {"measurement": "protein binding", "setting": "[2]", "result": "high protein binding"}
    ]}
  ]
}
